≈ marks a conversion by molar mass, not a printed value.
Tests used:
N. gonorrhoeae PBP2 = target: T1, N. gonorrhoeae PBP2 (Neisseria gonorrhoeae, UniProt P08149); assay: Bocillin-FL fluorescence polarization competition binding assay, N. gonorrhoeae PBP2; details: fluorescence polarization competition binding assay using Bocillin-FL; read-out: N. gonorrhoeae PBP2 Potency
T1 construct: made in house
Method in brief: (§1)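 A. baumannii PBP2 (2.5 μM) and PBP3 (0.2 μM) were run in 25 mM Tris pH 8.0 buffer with Tween 20; E. coli PBP3 (1.5 μM) and N. gonorrhoeae PBP2 ([…]) in 50 mM Hepes pH 8.0 buffer.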

[1] = Bocillin-FL fluorescence polarization competition binding assay, A. baumannii PBP3; details: fluorescence polarization competition binding assay using Bocillin-FL; column 3; read-out: 4. baumannii PBP1a Potency
Method in brief: as §1

[2] = test system: A. baumannii CDC-0045 producing TEM-1D, OXA-23, and OXA-69; assay: Broth microdilution MIC in iron-depleted CAMHB (IDM); assay type: cell-based; details: Acinetobacter baumannii, read-out: Minimum Inhibitory Concentration, CDC-0045
P. aeruginosa CDC-0110 = assay: as above; assay type: cell-based; details: Pseudomonas aeruginosa, CDC0110, read-out: Minimum Inhibitory Concentration, P. aeruginosa CDC-0110
Method in brief: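 MIC is the lowest well showing no visible growth after 16-20 h at 37 °C, starting from 2-8×10^5 CFU/mL in 2-fold serial compound dilutions. Medium: cation-adjusted Mueller Hinton broth iron-depleted with Chelex 100, supplemented back with Ca, Mg and Zn, pH 7.3; CLSI protocol.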

A. baumannii PBP1a = A. baumannii PBP1a (Acinetobacter baumannii, UniProt A0ABX6CK30); assay: Bocillin-FL fluorescence polarization competition binding assay, A. baumannii PBP1a; details: fluorescence polarization competition binding assay using Bocillin-FL; column 1; read-out: A. baumannii PBP1a Potency
Sequence of A. baumannii PBP1a (A0ABX6CK30 entry or part of it): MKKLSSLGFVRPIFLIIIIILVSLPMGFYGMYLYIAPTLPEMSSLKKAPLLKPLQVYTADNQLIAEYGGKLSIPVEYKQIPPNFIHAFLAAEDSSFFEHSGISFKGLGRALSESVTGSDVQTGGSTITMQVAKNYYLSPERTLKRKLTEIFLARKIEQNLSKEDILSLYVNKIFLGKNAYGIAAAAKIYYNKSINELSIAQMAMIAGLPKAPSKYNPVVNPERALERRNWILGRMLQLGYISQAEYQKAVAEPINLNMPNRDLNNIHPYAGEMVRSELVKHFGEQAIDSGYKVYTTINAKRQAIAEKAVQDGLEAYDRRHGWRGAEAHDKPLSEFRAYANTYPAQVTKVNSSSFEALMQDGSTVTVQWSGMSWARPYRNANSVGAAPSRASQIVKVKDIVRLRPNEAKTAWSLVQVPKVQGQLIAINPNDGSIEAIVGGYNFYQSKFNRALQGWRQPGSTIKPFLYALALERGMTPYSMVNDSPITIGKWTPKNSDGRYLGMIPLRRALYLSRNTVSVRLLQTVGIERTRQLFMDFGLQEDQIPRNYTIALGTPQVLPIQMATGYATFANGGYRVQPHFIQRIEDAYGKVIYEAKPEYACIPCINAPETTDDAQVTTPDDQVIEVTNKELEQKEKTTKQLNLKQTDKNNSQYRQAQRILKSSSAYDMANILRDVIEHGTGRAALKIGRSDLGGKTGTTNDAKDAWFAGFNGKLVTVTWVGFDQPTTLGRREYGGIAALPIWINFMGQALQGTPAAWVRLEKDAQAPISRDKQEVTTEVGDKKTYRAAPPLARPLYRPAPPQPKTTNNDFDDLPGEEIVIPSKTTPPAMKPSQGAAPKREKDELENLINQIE

T1 sequence (P08149 whole entry): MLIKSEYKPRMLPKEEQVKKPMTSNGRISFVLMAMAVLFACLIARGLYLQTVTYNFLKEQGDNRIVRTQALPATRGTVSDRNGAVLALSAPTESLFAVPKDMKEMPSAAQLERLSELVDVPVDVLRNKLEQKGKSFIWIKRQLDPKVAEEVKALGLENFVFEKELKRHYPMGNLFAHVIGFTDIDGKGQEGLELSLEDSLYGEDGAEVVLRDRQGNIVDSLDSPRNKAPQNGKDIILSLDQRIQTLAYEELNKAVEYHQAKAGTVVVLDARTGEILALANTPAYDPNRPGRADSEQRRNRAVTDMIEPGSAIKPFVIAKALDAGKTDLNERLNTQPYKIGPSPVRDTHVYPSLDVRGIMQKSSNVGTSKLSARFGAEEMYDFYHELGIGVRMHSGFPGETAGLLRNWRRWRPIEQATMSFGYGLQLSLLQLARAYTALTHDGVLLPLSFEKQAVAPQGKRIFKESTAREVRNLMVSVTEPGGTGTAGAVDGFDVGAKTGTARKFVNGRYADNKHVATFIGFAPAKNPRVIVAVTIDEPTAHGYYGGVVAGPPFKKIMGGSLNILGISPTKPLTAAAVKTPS

## NCCN1CCN(C(=O)N[C@@H](C(=O)N[C@H]2Cc3cccc(C(=O)O)c3OB2O)c2ccc(O)c(Cl)c2F)C(=O)C1=O (single isomer, unassigned) [Example 186]
N. gonorrhoeae PBP2
  EC50: < 10 µM

## NCCN1CCN(C(=O)N[C@H](C(=O)N[C@H]2Cc3cccc(C(=O)O)c3OB2O)c2ccc(O)c(Cl)c2F)C(=O)C1=O (single isomer, unassigned) [Example 187]
N. gonorrhoeae PBP2
  EC50: 10 to 30 µM

## NCCN1CCN(C(=O)N[C@@H](C(=O)N[C@H]2Cc3cccc(C(=O)O)c3OB2O)c2c(O)cc(O)cc2F)C(=O)C1=O (single isomer, unassigned) [Example 194]
N. gonorrhoeae PBP2
  EC50: 30 to 100 µM

## NCCCN1CCN(C(=O)N[C@@H](C(=O)N[C@H]2Cc3cccc(C(=O)O)c3OB2O)c2c(O)cc(O)cc2F)C(=O)C1=O (single isomer, unassigned) [Example 195]
N. gonorrhoeae PBP2
  EC50: 10 to 30 µM

## NCCN1CCN(C(=O)N[C@@H](C(=O)N[C@H]2Cc3cccc(C(=O)O)c3OB2O)c2ccc(O)c([N+](=O)[O-])c2)C(=O)C1=O (single isomer, unassigned) [Example 199]
N. gonorrhoeae PBP2
  EC50: 10 to 30 µM

## NCCN1CCN(C(=O)N[C@H](C(=O)N[C@H]2Cc3cccc(C(=O)O)c3OB2O)c2ccc(O)c([N+](=O)[O-])c2)C(=O)C1=O (single isomer, unassigned) [Example 200]
N. gonorrhoeae PBP2
  EC50: > 100 µM

## CCN1CCN(C(=O)N[C@H](C(=O)N[C@H]2Cc3cccc(C(=O)O)c3OB2O)c2ccc(C(=O)O)c(F)c2Cl)C(=O)C1=O (single isomer, unassigned) [Example 202]
N. gonorrhoeae PBP2
  EC50: > 100 µM

## CCN1CCN(C(=O)N[C@@H](C(=O)N[C@H]2Cc3cccc(C(=O)O)c3OB2O)c2ccc(C(=O)O)c(F)c2Cl)C(=O)C1=O (single isomer, unassigned) [Example 203]
N. gonorrhoeae PBP2
  EC50: < 10 µM

## CCN1CCN(C(=O)N[C@@H](C(=O)N[C@H]2Cc3ccc(F)c(C(=O)O)c3OB2O)c2c(Cl)cc(O)c(O)c2F)C(=O)C1=O (single isomer, unassigned) [Example 207]
[1]
  EC50: 10 to 30 µM
[2]
  MIC: > 128 µg/mL
P. aeruginosa CDC-0110
  MIC: 2 to 4 µg/mL (≈ 3.27 to 6.55 µM)

## O=C(NCCCN1CCN(C(=O)NC(C(=O)N[C@H]2Cc3cccc(C(=O)O)c3OB2O)c2ncc(O)cc2F)C(=O)C1=O)c1ccc(O)c(O)c1Cl (stereo partly drawn) [Example 1, (3R)-3-(2-(4-(3-(2-chloro-3,4-dihydroxybenzamido)propyl)-2,3-dioxopiperazine-1-carboxamido)-2-(3-fluoro-5-hydroxypyridin-2-yl)acetamido)-2-hydroxy-3,4-dihydro-2H-benzo[e][1,2]oxaborinine-8-carboxylic acid]
A. baumannii PBP1a
  EC50: 10 to 30 µM

## Nc1nc(C(NC(=O)N2CCN(CCNC(=O)c3ccc(O)c(O)c3Cl)C(=O)C2=O)C(=O)N[C@H]2Cc3ccc(F)c(C(=O)O)c3OB2O)c(F)s1 (stereo partly drawn) [Example 4, (3R)-3-(2-(2-amino-5-fluorothiazol-4-yl)-2-(4-(2-(2-chloro-3,4-dihydroxybenzamido)ethyl)-2,3-dioxopiperazine-1-carboxamido)acetamido)-7-fluoro-2-hydroxy-3,4-dihydro-2H-benzo[e][1,2]oxaborinine-8-carboxylic acid]
[2]
  MIC: 2 to 4 µg/mL (≈ 2.66 to 5.32 µM)
P. aeruginosa CDC-0110
  MIC: 0.25 µg/mL (≈ 0.333 µM)

## Nc1nc(/C(=N/OC[C@H](NC(=O)c2ccc(O)c(O)c2Cl)C(=O)O)C(=O)N[C@H]2Cc3cccc(C(=O)O)c3OB2O)cs1 [Example 6, (R)-3-((Z)-2-(2-aminothiazol-4-yl)-2-(((S)-2-carboxy-2-(2-chloro-3,4-dihydroxybenzamido)ethoxy)imino)acetamido)-2-hydroxy-3,4-dihydro-2H-benzo[e][1,2]oxaborinine-8-carboxylic acid]
[1]
  EC50: > 100 µM
[2]
  MIC: 32 to 64 µg/mL (≈ 50.5 to 101 µM)
P. aeruginosa CDC-0110
  MIC: 2 to 4 µg/mL (≈ 3.16 to 6.31 µM)

## NCCCN1CCN(C(=O)NC(C(=O)N[C@H]2Cc3cccc(C(=O)O)c3OB2O)c2c(F)cc(O)cc2F)C(=O)C1=O (stereo partly drawn) [Example 183, (3R)-3-(2-(4-(3-aminopropyl)-2,3-dioxopiperazine-1-carboxamido)-2-(2,6-difluoro-4-hydroxyphenyl)acetamido)-2-hydroxy-3,4-dihydro-2H-benzo[e][1,2]oxaborinine-8-carboxylic acid]
N. gonorrhoeae PBP2
  EC50: < 10 µM

## CCN1CCN(C(=O)NC(C(=O)N[C@H]2Cc3cccc(C(=O)O)c3OB2O)c2cc([N+](=O)[O-])c(O)cc2F)C(=O)C1=O (stereo partly drawn) [Example 184, (3R)-3-(2-(4-ethyl-2,3-dioxopiperazine-1-carboxamido)-2-(2-fluoro-4-hydroxy-5-nitrophenyl)acetamido)-2-hydroxy-3,4-dihydro-2H-benzo[e][1,2]oxaborinine-8-carboxylic acid]
N. gonorrhoeae PBP2
  EC50: < 10 µM

## CCN1CCN(C(=O)NC(C(=O)N[C@H]2Cc3cccc(C(=O)O)c3OB2O)c2ccc(O)c(Cl)c2F)C(=O)C1=O (stereo partly drawn) [Example 185, (3R)-3-(2-(3-chloro-2-fluoro-4-hydroxyphenyl)-2-(4-ethyl-2,3-dioxopiperazine-1-carboxamido)acetamido)-2-hydroxy-3,4-dihydro-2H-benzo[e][1,2]oxaborinine-8-carboxylic acid]
N. gonorrhoeae PBP2
  EC50: < 10 µM

## CCN1CCN(C(=O)NC(C(=O)N[C@H]2Cc3cccc(C(=O)O)c3OB2O)c2c(F)cc(NC(C)=O)cc2F)C(=O)C1=O (stereo partly drawn) [Example 188, (3R)-3-(2-(4-acetamido-2,6-difluorophenyl)-2-(4-ethyl-2,3-dioxopiperazine-1-carboxamido)acetamido)-2-hydroxy-3,4-dihydro-2H-benzo[e][1,2]oxaborinine-8-carboxylic acid]
[1]
  EC50: < 10 µM
N. gonorrhoeae PBP2
  EC50: < 10 µM

## CCN1CCN(C(=O)NC(C(=O)N[C@H]2Cc3cccc(C(=O)O)c3OB2O)c2cc(C#N)c(OC)cc2F)C(=O)C1=O (stereo partly drawn) [Example 192, (3R)-3-(2-(5-cyano-2-fluoro-4-methoxyphenyl)-2-(4-ethyl-2,3-dioxopiperazine-1-carboxamido)acetamido)-2-hydroxy-3,4-dihydro-2H-benzo[e][1,2]oxaborinine-8-carboxylic acid]
N. gonorrhoeae PBP2
  EC50: 10 to 30 µM

## O=C(O)c1cccc2c1OB(O)[C@@H](NC(=O)C(NC(=O)N1CCN(CC3CNC3)C(=O)C1=O)c1c(F)cc(O)cc1F)C2 (stereo partly drawn) [Example 193, (3R)-3-(2-(4-(azetidin-3-ylmethyl)-2,3-dioxopiperazine-1-carboxamido)-2-(2,6-difluoro-4-hydroxyphenyl)acetamido)-2-hydroxy-3,4-dihydro-2H-benzo[e][1,2]oxaborinine-8-carboxylic acid]
N. gonorrhoeae PBP2
  EC50: 10 to 30 µM

## CCN1CCN(C(=O)NC(C(=O)N[C@H]2Cc3cccc(C(=O)O)c3OB2O)c2ccc(C(=O)O)c(O)c2)C(=O)C1=O (stereo partly drawn) [Example 196, (3R)-3-(2-(4-carboxy-3-hydroxyphenyl)-2-(4-ethyl-2,3-dioxopiperazine-1-carboxamido)acetamido)-2-hydroxy-3,4-dihydro-2H-benzo[e][1,2]oxaborinine-8-carboxylic acid]
N. gonorrhoeae PBP2
  EC50: < 10 µM

## CCN1CCN(C(=O)NC(C(=O)N[C@H]2Cc3cccc(C(=O)O)c3OB2O)c2ccc(C(=O)O)c(Cl)c2Cl)C(=O)C1=O (stereo partly drawn) [Example 201, (3R)-3-(2-(4-carboxy-2,3-dichlorophenyl)-2-(4-ethyl-2,3-dioxopiperazine-1-carboxamido)acetamido)-2-hydroxy-3,4-dihydro-2H-benzo[e][1,2]oxaborinine-8-carboxylic acid]
N. gonorrhoeae PBP2
  EC50: 10 to 30 µM

## CS(=O)(=O)N1CCN(C(=O)NC(C(=O)N[C@H]2Cc3ccc(F)c(C(=O)O)c3OB2O)c2c(Cl)cc(O)c(O)c2F)C1=O (stereo partly drawn) [Example 208, (3R)-3-(2-(6-chloro-2-fluoro-3,4-dihydroxyphenyl)-2-(3-(methylsulfonyl)-2-oxoimidazolidine-1-carboxamido)acetamido)-7-fluoro-2-hydroxy-3,4-dihydro-2H-benzo[e][1,2]oxaborinine-8-carboxylic acid]
[1]
  EC50: 30 to 100 µM
[2]
  MIC: > 128 µg/mL
P. aeruginosa CDC-0110
  MIC: 8 to 16 µg/mL (≈ 12.6 to 25.3 µM)

## CCN1CCN(C(=O)N[C@H](C(=O)N[C@H]2Cc3ccc(F)c(C(=O)O)c3OB2O)c2ccc(O)c(O)c2)C(=O)C1=O [Example 210, (R)-3-((S)-2-(3,4-dihydroxyphenyl)-2-(4-ethyl-2,3-dioxopiperazine-1-carboxamido)acetamido)-7-fluoro-2-hydroxy-3,4-dihydro-2H-benzo[e][1,2]oxaborinine-8-carboxylic acid]
[1]
  EC50: > 100 µM
[2]
  MIC: > 128 µg/mL
P. aeruginosa CDC-0110
  MIC: > 128 µg/mL

## CCN1CCN(C(=O)N[C@@H](C(=O)N[C@H]2Cc3ccc(F)c(C(=O)O)c3OB2O)c2ccc(O)c(O)c2)C(=O)C1=O [Example 211, (R)-3-((R)-2-(3,4-dihydroxyphenyl)-2-(4-ethyl-2,3-dioxopiperazine-1-carboxamido)acetamido)-7-fluoro-2-hydroxy-3,4-dihydro-2H-benzo[e][1,2]oxaborinine-8-carboxylic acid]
[1]
  EC50: 30 to 100 µM
[2]
  MIC: > 128 µg/mL
P. aeruginosa CDC-0110
  MIC: 2 to 4 µg/mL (≈ 3.58 to 7.16 µM)

## NCCN1CCN(C(=O)N[C@@H](C(=O)N[C@H]2Cc3ccc(F)c(C(=O)O)c3OB2O)c2c(F)c(F)c(O)c(O)c2Cl)C(=O)C1=O [Example 226, (R)-3-((R)-2-(4-(2-aminoethyl)-2,3-dioxopiperazine-1-carboxamido)-2-(2-chloro-5,6-difluoro-3,4-dihydroxyphenyl)acetamido)-7-fluoro-2-hydroxy-3,4-dihydro-2H-benzo[e][1,2]oxaborinine-8-carboxylic acid]
[1]
  EC50: > 100 µM
[2]
  MIC: 8 to 16 µg/mL (≈ 12.4 to 24.9 µM)
P. aeruginosa CDC-0110
  MIC: 0.5 to 1 µg/mL (≈ 0.777 to 1.55 µM)

— patent publication US20230114728A1 (Venatorx Pharmaceuticals, Inc., priority 2019, published 2023)
